Source: patent US20230203098A1, “HUMAN TRANSFERRIN RECEPTOR BINDING PEPTIDE” (priority 2020, published 2023)
Like-named read-outs stand apart in the source and are kept apart here. *1 amine or outer side, *2 acyl side, *3 side chain or, on linkers, in order; H or OH if unused. Where a SMILES comes first, the peptide text is derived from it. Bridges are numbered along the chain shown (N, C = ends). [ ]: non-standard residue; d: D form. The star is where a group is joined. ξ: configuration not given here. X2 = O=C(O)c1cc(C(=O)*)ccc1-c1c2ccc(=O)cc-2oc2cc(O)ccc12; PEG12 = NCCOCCOCCOCCOCCOCCOCCOCCOCCOCCOCCOCCOCCC(=O)O; X5 = O=C([C@H](Cc1cn(CCO)c2ccccc12)N[*:1])[*:2]; Phe(3-COOH) = N[C@@H](Cc1cccc(C(=O)O)c1)C(=O)O; NMePhe(3-Cl) = CN[C@@H](Cc1cccc(Cl)c1)C(=O)O; NMeW = CN[C@@H](Cc1c[nH]c2ccccc12)C(=O)O; NMeY = CN[C@@H](Cc1ccc(O)cc1)C(=O)O; NMeH = CN[C@@H](Cc1c[nH]cn1)C(=O)O; NMeF = CN[C@@H](Cc1ccccc1)C(=O)O; Ahp(2) = CCCCC[C@H](N)C(=O)O; Chg = N[C@H](C(=O)O)C1CCCCC1; PEG4 = NCCOCCOCCOCCOCCC(=O)O; ξαMeK = CC(N)(CCCCN)C(=O)O; Aib = CC(C)(N)C(=O)O

Biological target: transferrin receptor (hTfR) (Homo sapiens, UniProt P02786)
Test: Intermolecular interaction evaluation test between transferrin receptor (hTfR) and peptide by surface plasmon resonance (SPR)
Format: binding
Procedure, shortened: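 hTfR captured on Ni-NTA chip then amine-coupled; peptides run single-cycle kinetics at 5–100 nM in 10 mM HEPES pH 8.0, 150 mM NaCl, 0.05% Tween 20, 0.1% BSA, 1.0% DMSO. KD from least-squares curve fitting of sensorgrams.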

[1] = SPR, hTfR No. 894 variants with PEG12c linker (Table 2), read-out: KD
[2] = surface plasmon resonance, hTfR, read-out: KD value for hTfR by SPR (class symbol)
[3] = binding to hTfR by SPR, Table 2 peptides, read-out: KD value (SPR) class

transferrin receptor (hTfR), sequence (P02786 whole entry): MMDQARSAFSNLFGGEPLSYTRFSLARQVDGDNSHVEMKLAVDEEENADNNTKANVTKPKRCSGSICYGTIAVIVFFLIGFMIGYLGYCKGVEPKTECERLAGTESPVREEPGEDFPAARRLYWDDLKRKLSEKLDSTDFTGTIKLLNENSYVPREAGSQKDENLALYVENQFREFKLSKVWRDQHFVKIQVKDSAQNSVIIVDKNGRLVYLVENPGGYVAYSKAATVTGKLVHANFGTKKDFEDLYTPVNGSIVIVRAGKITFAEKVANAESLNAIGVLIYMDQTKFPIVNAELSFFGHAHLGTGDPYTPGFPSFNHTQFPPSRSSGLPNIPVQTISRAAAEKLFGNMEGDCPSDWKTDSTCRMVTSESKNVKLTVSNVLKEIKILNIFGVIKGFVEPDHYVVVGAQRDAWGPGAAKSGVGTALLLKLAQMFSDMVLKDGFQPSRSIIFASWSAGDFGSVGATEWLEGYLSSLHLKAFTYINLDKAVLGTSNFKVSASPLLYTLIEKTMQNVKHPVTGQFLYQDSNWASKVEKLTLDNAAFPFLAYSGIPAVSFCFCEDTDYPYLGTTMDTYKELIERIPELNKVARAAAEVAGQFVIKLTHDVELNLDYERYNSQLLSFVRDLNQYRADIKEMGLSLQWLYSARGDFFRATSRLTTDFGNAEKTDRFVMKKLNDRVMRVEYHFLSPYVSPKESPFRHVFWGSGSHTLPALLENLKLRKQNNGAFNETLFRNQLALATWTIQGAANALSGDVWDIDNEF

## CC[C@H](C)[C@@H]1NC(=O)[C@H](Cc2cccc(C(=O)O)c2)NC(=O)[C@H](Cc2ccc(O)cc2)NC(=O)[C@H](CC(N)=O)NC(=O)[C@H](Cc2c[nH]c3ccccc23)N(C)C(=O)[C@H](C(C)C)NC(=O)[C@H](Cc2cccc(Cl)c2)N(C)C(=O)[C@H](C(C)C)NC(=O)[C@H](C)NC(=O)CSC[C@@H](C(N)=O)NC(=O)[C@H](Cc2ccc(O)cc2)N(C)C(=O)[C@H](Cc2ccccc2)NC(=O)[C@@H](CCCNC(=N)N)NC(=O)[C@H](CCCNC(=N)N)NC(=O)[C@H]([C@@H](C)CC)NC1=O [compound 458] ({CH2CO}-AV[NMePhe(3-Cl)]V[NMeW]NY[Phe(3-COOH)]IIR[dR]F[NMeY]C-NH2; thioether N-15)
SPR, hTfR, class symbols A-D, read-out: KD
  Kd: 1 to 100 nM

## CC[C@H](C)[C@@H]1NC(=O)[C@H](Cc2ccc(O)cc2)NC(=O)[C@H](Cc2ccc(O)cc2)NC(=O)[C@H](CC(N)=O)NC(=O)[C@H](Cc2ccc(OC)cc2)NC(=O)[C@H](C(C)C)NC(=O)[C@H](Cc2ccccc2)N(C)C(=O)[C@H](C(C)C)NC(=O)[C@H](C)NC(=O)CSC[C@@H](C(=O)NCCOCCOCCOCCOCCOCCOCCOCCOCCOCCOCCOCCOCCC(N)=O)NC(=O)[C@H](Cc2ccc(O)cc2)N(C)C(=O)[C@H](Cc2ccc(O)cc2)NC(=O)[C@H](CCCNC(=N)N)NC(=O)[C@H](CCCNC(=N)N)NC(=O)[C@H]([C@@H](C)CC)NC1=O [compound 118] ({CH2CO}-AV[NMeF]VY(Me)NYYIIRRY[NMeY]C[PEG12]-NH2; thioether N-15)
[1]
  Kd: 1 to 100 nM

## CC[C@H](C)[C@@H]1NC(=O)[C@H](Cc2ccc(OC)cc2)NC(=O)[C@H](Cc2ccc(O)cc2)NC(=O)[C@H](CC(N)=O)NC(=O)[C@H](Cc2c[nH]c3ccccc23)N(C)C(=O)[C@H](C(C)C)NC(=O)[C@H](Cc2cccc(Cl)c2)N(C)C(=O)[C@H](CCC(=O)O)NC(=O)[C@H](C)NC(=O)CSC[C@@H](C(=O)NCC(=O)NCC(=O)NCC(=O)NCC(=O)N[C@@H](CO)C(=O)N[C@@H](CO)C(=O)N[C@@H](CS)C(N)=O)NC(=O)[C@H](Cc2ccc(O)cc2)N(C)C(=O)[C@H](Cc2ccccc2)NC(=O)[C@@H](CCCNC(=N)N)NC(=O)[C@H](CCCCN)NC(=O)[C@H]([C@@H](C)CC)NC1=O [compound 229]
SPR, peptides, linker-added peptides and FITC conjugates, Patent ID 203-230, read-out: KD
  Kd: 1 to 100 nM

## CCCCC[C@@H]1NC(=O)[C@H](Cc2ccc(O)cc2)NC(=O)[C@H](CC(N)=O)NC(=O)[C@H](Cc2c[nH]c3ccccc23)NC(=O)[C@H](C(C)C)NC(=O)[C@H](Cc2ccccc2)N(C)C(=O)[C@H](C(C)C)NC(=O)[C@H](C)NC(=O)CSC[C@@H](C(=O)NCCOCCOCCOCCOCCOCCOCCOCCOCCOCCOCCOCCOCCC(N)=O)NC(=O)[C@H](Cc2ccc(O)cc2)N(C)C(=O)[C@H](Cc2ccc(O)cc2)NC(=O)[C@H](CCCNC(=N)N)NC(=O)[C@H](CCCNC(=N)N)NC(=O)[C@H]([C@@H](C)CC)NC(=O)[C@H]([C@@H](C)CC)NC1=O [compound 139] ({CH2CO}-AV[NMeF]VWNY[Ahp(2)]IIRRY[NMeY]C[PEG12]-NH2; thioether N-15)
[1]
  Kd: 1 to 100 nM

## CC[C@H](C)[C@@H]1NC(=O)[C@H](Cc2ccc(O)cc2)NC(=O)[C@H](Cc2ccc(O)cc2)NC(=O)[C@H](CC(N)=O)NC(=O)[C@H](Cc2c[nH]c3ccccc23)NC(=O)[C@H](C(C)C)NC(=O)[C@H](Cc2ccccc2)N(C)C(=O)[C@H](C(C)C)NC(=O)[C@H](C)NC(=O)CSC[C@@H](C(=O)NCCOCCOCCOCCOCCOCCOCCOCCOCCOCCOCCOCCOCCC(N)=O)NC(=O)[C@H](CCC(=O)O)NC(=O)[C@H](Cc2ccc(O)cc2)NC(=O)[C@H](CCCNC(=N)N)NC(=O)[C@H](CCCNC(=N)N)NC(=O)[C@H]([C@@H](C)CC)NC1=O [compound 124]
[1]
  Kd: 100 to 1000 nM

## CC[C@H](C)[C@@H]1NC(=O)[C@H](Cc2ccc(OC)cc2)NC(=O)[C@H](Cc2ccc(O)cc2)NC(=O)[C@H](CC(N)=O)NC(=O)[C@H](Cc2c[nH]c3ccccc23)N(C)C(=O)[C@H](C(C)C)NC(=O)[C@H](Cc2cccc(Cl)c2)N(C)C(=O)[C@H](C(C)C)NC(=O)[C@H](C)NC(=O)CSC[C@@H](C(=O)NCCOCCOCCOCCOCCC(N)=O)NC(=O)[C@H](Cc2ccc(O)cc2)N(C)C(=O)[C@H](Cc2ccccc2)NC(=O)[C@@H](CCCNC(=N)N)NC(=O)[C@H](CCCNC(=N)N)NC(=O)[C@H]([C@@H](C)CC)NC1=O [compound 400]
[2]
  Kd: 1 to 100 nM

## CC[C@H](C)[C@@H]1NC(=O)[C@H](Cc2ccc(OC)cc2)NC(=O)[C@H](Cc2ccc(O)cc2)NC(=O)[C@H](CC(N)=O)NC(=O)[C@H](Cc2c[nH]c3ccccc23)N(C)C(=O)[C@H](C(C)C)NC(=O)[C@H](Cc2cccc(Cl)c2)N(C)C(=O)[C@H](C(C)C)NC(=O)[C@H](C)NC(=O)CSC[C@@H](C(=O)NCCOCCOCCOCCOCCC(N)=O)NC(=O)[C@H](Cc2ccc(O)cc2)N(C)C(=O)[C@H](Cc2ccccc2)NC(=O)[C@@H](CCCNC(=N)N)NC(=O)C(C)(CCCCN)NC(=O)[C@H]([C@@H](C)CC)NC1=O (some centres unmarked) [compound 380] ({CH2CO}-AV[NMePhe(3-Cl)]V[NMeW]NYY(Me)II[ξαMeK][dR]F[NMeY]C[PEG4]-NH2; thioether N-15)
[2]
  Kd: 1 to 100 nM

## CC[C@H](C)[C@@H]1NC(=O)[C@H](Cc2ccc(OC)cc2)NC(=O)[C@H](Cc2ccc(O)cc2)NC(=O)[C@H](CC(N)=O)NC(=O)[C@H](Cc2cn(CCO)c3ccccc23)NC(=O)[C@H](C(C)C)NC(=O)[C@H](Cc2cccc(Cl)c2)N(C)C(=O)[C@H](C(C)C)NC(=O)[C@H](C)NC(=O)CSC[C@@H](C(N)=O)NC(=O)[C@H](Cc2ccc(O)cc2)N(C)C(=O)[C@H](Cc2ccccc2)NC(=O)[C@@H](CCCNC(=N)N)NC(=O)C(C)(C)NC(=O)[C@H]([C@@H](C)CC)NC1=O [compound 305] ({CH2CO}-AV[NMePhe(3-Cl)]V[X5]NYY(Me)II[Aib][dR]F[NMeY]C-NH2; thioether N-15)
Surface plasmon resonance, peptide vs hTfR, read-out: KD value, hTfR binding by SPR (class symbol)
  Kd: 100 to 1000 nM

## CC[C@H](C)[C@@H]1NC(=O)[C@H](Cc2ccc(OC)cc2)NC(=O)[C@H](Cc2ccc(O)cc2)NC(=O)[C@H](CC(N)=O)NC(=O)[C@H](Cc2c[nH]c3ccccc23)N(C)C(=O)[C@H](C(C)C)NC(=O)[C@H](Cc2cccc(Cl)c2)N(C)C(=O)[C@H](C(C)C)NC(=O)[C@H](C)NC(=O)CSC[C@@H](C(N)=O)NC(=O)[C@H](Cc2ccc(O)cc2)N(C)C(=O)[C@H](Cc2ccccc2)NC(=O)[C@@H](CCCNC(=N)N)NC(=O)[C@H](CCCCN)N(C)C(=O)[C@H]([C@@H](C)CC)NC1=O [compound 377]
[2]
  Kd: 1 to 100 nM

## CC[C@H](C)[C@@H]1NC(=O)[C@H](Cc2ccc(OC)cc2)NC(=O)[C@H](Cc2ccc(O)cc2)NC(=O)[C@H](CC(N)=O)NC(=O)[C@H](Cc2c[nH]c3ccccc23)N(C)C(=O)[C@H](C(C)C)NC(=O)[C@H](Cc2cccc(Cl)c2)N(C)C(=O)[C@H](C(C)C)NC(=O)[C@H](C)NC(=O)CSC[C@@H](C(=O)NCC(=O)N[C@H](CCC(=O)O)C(=O)NCC(=O)N[C@H](CCC(=O)O)C(=O)N[C@@H](CO)C(=O)N[C@@H](CO)C(=O)N[C@@H](CS)C(N)=O)NC(=O)[C@H](Cc2ccc(O)cc2)N(C)C(=O)[C@H](Cc2ccccc2)NC(=O)[C@@H](CCCNC(=N)N)NC(=O)[C@H](CCCNC(=N)N)NC(=O)[C@H]([C@@H](C)CC)NC1=O [compound 403]
[2]
  Kd: 1 to 100 nM

## CC[C@H](C)[C@@H]1NC(=O)[C@H](Cc2ccc(O)cc2)NC(=O)[C@H](Cc2ccc(O)cc2)NC(=O)[C@H](CC(N)=O)NC(=O)[C@H](Cc2c[nH]c3ccccc23)NC(=O)[C@H](C(C)C)NC(=O)[C@H](Cc2ccccc2)NC(=O)[C@H](C(C)C)NC(=O)[C@H](C)NC(=O)CSC[C@@H](C(N)=O)NC(=O)[C@H](Cc2ccc(O)cc2)N(C)C(=O)[C@H](Cc2ccc(O)cc2)NC(=O)[C@H](CCCCN)NC(=O)[C@H](CCCNC(=N)N)NC(=O)[C@H]([C@@H](C)CC)NC1=O [compound 258]
[3]
  Kd: 1 to 100 nM

## CC[C@H](C)[C@@H]1NC(=O)[C@H](C2CCCCC2)NC(=O)[C@H](Cc2ccc(O)cc2)NC(=O)[C@H](Cc2ccc(O)cc2)NC(=O)[C@H](CC(N)=O)NC(=O)[C@H](Cc2c[nH]c3ccccc23)NC(=O)[C@H](C2CCCCC2)NC(=O)[C@H](Cc2ccccc2)N(C)C(=O)[C@H](C(C)C)NC(=O)[C@H](C)NC(=O)CSC[C@@H](C(=O)NCCOCCOCCOCCOCCOCCOCCOCCOCCOCCOCCOCCOCCC(N)=O)NC(=O)[C@H](Cc2ccc(O)cc2)N(C)C(=O)[C@H](Cc2ccc(O)cc2)NC(=O)[C@H](CCCNC(=N)N)NC(=O)[C@H](CCCNC(=N)N)NC1=O [compound 266] ({CH2CO}-AV[NMeF][Chg]WNYY[Chg]IRRY[NMeY]C[PEG12]-NH2; thioether N-15)
[3]
  Kd: 100 to 1000 nM

## CC[C@H](C)[C@@H]1NC(=O)[C@H](CCCNC(=N)N)NC(=O)[C@H](CC(N)=O)NC(=O)[C@H](C)NC(=O)CSC[C@@H](C(=O)NCCOCCOCCOCCOCCOCCOCCOCCOCCOCCOCCOCCOCCC(=O)N[C@@H](CCCCNC(=O)c2ccc(-c3c4ccc(=O)cc-4oc4cc(O)ccc34)c(C(=O)O)c2)C(N)=O)NC(=O)[C@H](Cc2c[nH]cn2)N(C)C(=O)[C@H](CCCNC(=N)N)NC(=O)[C@@H]2CCCN2C(=O)[C@H]([C@@H](C)CC)NC(=O)[C@H]([C@@H](C)CC)NC(=O)[C@H](Cc2ccc(O)cc2)NC(=O)[C@H](Cc2ccc(O)cc2)NC(=O)[C@H](CC(N)=O)NC(=O)[C@H](Cc2c[nH]c3ccccc23)NC(=O)[C@H](C(C)C)NC(=O)[C@H](Cc2ccccc2)NC(=O)[C@H](C(C)C)NC1=O [compound 154] ({CH2CO}-ANRIVFVWNYYIIPR[NMeH]C[PEG12]K(X2)-NH2; thioether N-17)
SPR, linker and payload (FITC, VivoTag) conjugates, read-out: KD
  Kd: 1 to 100 nM

## CC[C@H](C)[C@@H]1NC(=O)[C@H](Cc2ccc(OC)cc2)NC(=O)[C@H](Cc2ccc(O)cc2)NC(=O)[C@H](CC(N)=O)NC(=O)[C@H](Cc2c[nH]c3ccccc23)N(C)C(=O)[C@H](C(C)C)NC(=O)[C@H](Cc2cccc(Cl)c2)N(C)C(=O)[C@H](CCC(=O)O)NC(=O)[C@H](C)NC(=O)CSC[C@@H](C(N)=O)NC(=O)[C@H](Cc2ccc(O)cc2)N(C)C(=O)[C@H](Cc2ccccc2)NC(=O)[C@H](CCCNC(=N)N)NC(=O)[C@H](CCCNC(=N)N)NC(=O)[C@H]([C@@H](C)CC)NC1=O [compound 233]
[3]
  Kd: < 1 nM
